Converted amounts (≈) assume the structure as drawn.
Columns and labels:
H. pylori = assay: NCCLS agar dilution MIC, 21 H. pylori strains; format: cell-based, Helicobacter pylori; settings: 21 isolates of H. pylori, read at 72 hours; for MIC50 / MIC90: Helicobacter pylori
Text: (§1) The aim of the present invention is to evaluate the susceptibility of H. pylori to the new fluoroquinolone gemifloxacin (SB-265805). Twenty-one (21) H. pylori strains were obtained, including 16 clinical isolates CCUG 39297, CCUG 30988 (Lelwala-Guruge, J., Ljungh, A., & Wadstrom, T. 1992. APMIS 100, 908-13), CCUG 17875 (Lelwala-Guruge, J., Ljungh, A., & Wadstrom, T. 1992. APMIS 100, 908-13; Ilver, D., Arnqvist, A., Ogren, J., Frick, I. M., Kersulyte, D., Incecik, E. T. et al. 1998. Science 279, 373-7), CCUG 38771, CCUG 15818, CCUG 17874 (Lelwala-Guruge, J., Ljungh, A., & Wadstrom, T. 1992. APMIS 100, 908-13; O'Toole, P. W., Logan, S. M., Kostrzynska, M., Wadström, T., & Trust, T. J. 1991. Journal of Bacteriology 173, 505-513), CCUG 19087, CCUG 30987 (Lelwala-Guruge, J., Ljungh, A., & Wadstrom, T. 1992. APMIS 100, 908-13), CCUG 38772, CCUG 18943, CCUG 18295, CCUG 36718, CCUG 36719, CCUG 35899, CCUG 36720, CCUG 39924; and laboratory strains Not18, Not34, ATCC 43504, SS1, and ATCC 700392/26695. These strains include gastric biopsy isolates from the USA, Sweden, France, Belgium, UK, South Africa, and Australia Two of the clinical isolates are reported to have the cagA^+ genotype (strains CCUG 17874 and CCUG 17875) and three to be cagA^− (strains CCUG 36720, CCUG 36719, and CCUG 30988), but the cag genotype of the rest is unknown. […] The activities of amoxycillin, tetracycline and metronidazole against H. pylori ATCC 43504 were also tested as controls. The agar plates were inoculated using a Steers replicator and read at 72 hours.

H. pylori ATCC 43504 = assay: NCCLS agar dilution MIC, control antibiotics against quality control strain; format: cell-based; settings: Helicobacter pylori, ATCC43504, read at 72 hours
Text: as §1

MIC Range (H. pylori) | MIC50 (H. pylori) | MIC90 (H. pylori) | MIC (H. pylori ATCC 43504) | SMILES
0.13 to 2.0 µg/mL | 0.25 µg/mL (≈ 0.623 µM) | 0.5 µg/mL (≈ 1.25 µM) | – | COc1c(N2C[C@@H]3CCCN[C@@H]3C2)c(F)cc2c(=O)c(C(=O)O)cn(C3CC3)c12 [Moxifloxacin]
– | – | – | 0.06 µg/mL (≈ 0.164 µM) | CC1(C)S[C@@H]2[C@H](NC(=O)[C@H](N)c3ccc(O)cc3)C(=O)N2[C@H]1C(=O)O [amoxycillin]
0.03 to 0.5 µg/mL | 0.13 µg/mL (≈ 0.346 µM) | 0.13 µg/mL (≈ 0.346 µM) | – | COc1c(N2CCNC(C)C2)c(F)cc2c(=O)c(C(=O)O)cn(C3CC3)c12 (stereo not drawn) [Gatifloxacin]
0.03 to 1.0 µg/mL | 0.06 µg/mL (≈ 0.154 µM) | 0.13 µg/mL (≈ 0.334 µM) | – | CO/N=C1\CN(c2nc3c(cc2F)c(=O)c(C(=O)O)cn3C2CC2)CC1CN (racemic) [Gemifloxacin, (R,S)-7-(3-aminomethyl-4-methoxyiminopyrrolidin-1-yl)-1-cyclopropyl-6-fluoro-4-oxo-1,4-dihydro-1,8-naphthyridine-3-carboxylic acid]
– | – | – | 256 µg/mL (≈ 1500 µM) | Cc1ncc([N+](=O)[O-])n1CCO [metronidazole]
0.13 to 2.0 µg/mL | 0.25 µg/mL (≈ 0.692 µM) | 0.5 µg/mL (≈ 1.38 µM) | – | C[C@H]1COc2c(N3CCN(C)CC3)c(F)cc3c(=O)c(C(=O)O)cn1c23 [Levofloxacin]

SMILES | MIC Range (H. pylori) | MIC50 (H. pylori) | MIC90 (H. pylori) | MIC (H. pylori ATCC 43504)
CN(C)[C@@H]1C(O)=C(C(N)=O)C(=O)[C@@]2(O)C(O)=C3C(=O)c4c(O)cccc4[C@@](C)(O)[C@H]3C[C@@H]12 [tetracycline] | – | – | – | 1 µg/mL (≈ 2.25 µM)

From patent US20040023983A1, “Methods of use of fluoroquinolone compounds against pathogenic helicobacter bacteria” (priority 2003, published 2004)
